Measured values: patent US9896668B2, “Substrate-mimetic AKT inhibitor” (University of South Florida, priority 2006, dated 2018)
Square brackets hold non-standard residues; d marks the D form. Peptide text beside a SMILES is read from it. * marks the point of attachment. 4Abz = Nc1ccc(C(=O)O)cc1; NHBn = c1ccc(CN*)cc1

Target: Akt1 (Homo sapiens, UniProt P31749)
Experiment: in vitro inhibition of Akt, fluorescence polarization assay (IMAP Akt Assay Kit)
Type: biochemical
Description: FIG. 9 is a table of investigations into the hydrophobic interactions between the GSK-3 residues central hydrophobic contacts and Akt. The values reported are an average of three independent binding curves using an IMAP™ Akt Assay Kit (Molecular Devices). Reactions were conducted in wells with 20.0 μL of 10 mM Tris-HCl (pH 7.2), 10 mM MgCl2, 0.1% BSA, 0.05% NaN3, 1 mM DTT, 100 nM 5FAM-[…]-COOH, 5 μM ATP, Akt1, and inhibitor. Reaction mixtures were incubated for 1 h at room temperature and then quenched with 60 μL of the IMAP-binding solution. The reactions were equilibrated for 1 h at room temperature then data points were collected and analyzed.
FIG. 14 is a table showing the optimization of C-terminal and central substituents for non-peptide inhibitors. ^a Reported values are an average of three independent-binding curves utilizing an IMAP® Akt Assay Kit (Molecular Devices). […] The reactions were equilibrated for 1 h at room temperature then data points were collected and analyzed. […]
Peptidomimetic inhibitors were generated directly from the minimal substrate sequence by systematic replacement of the non-critical amino acids and tested for in vitro inhibition of Akt using a fluorescence polarization assay system, shown in FIG. 3. […]

Chain of Akt1 (P31749 whole entry): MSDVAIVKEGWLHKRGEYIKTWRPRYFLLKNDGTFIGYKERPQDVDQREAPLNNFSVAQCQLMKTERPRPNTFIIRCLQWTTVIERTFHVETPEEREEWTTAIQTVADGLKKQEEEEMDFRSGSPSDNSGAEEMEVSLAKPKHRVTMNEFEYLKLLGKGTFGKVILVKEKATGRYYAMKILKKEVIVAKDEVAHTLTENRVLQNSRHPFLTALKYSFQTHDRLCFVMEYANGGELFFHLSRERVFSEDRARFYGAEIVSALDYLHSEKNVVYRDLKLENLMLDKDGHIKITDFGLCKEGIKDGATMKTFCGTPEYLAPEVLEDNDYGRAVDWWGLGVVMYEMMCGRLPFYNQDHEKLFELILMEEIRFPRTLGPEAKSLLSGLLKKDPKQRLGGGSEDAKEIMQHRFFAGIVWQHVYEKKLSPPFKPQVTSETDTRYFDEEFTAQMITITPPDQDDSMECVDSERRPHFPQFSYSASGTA

What does the source list for CC(=O)NCC(=O)N[C@@H](CCCNC(=N)N)C(=O)N1CCC[C@H]1C(=O)N[C@@H](CCCNC(=N)N)C(=O)Nc1ccc(C(=O)N[C@H](C(=O)N[C@@H](Cc2ccccc2)C(=O)NCc2ccccc2)C(C)C)cc1 [Inhibitor 10] (Ac-GRPR[4Abz]VF-NHBn)?
IC50 (IMAP Akt Assay Kit, 5 μM ATP, 100 nM 5FAM-GRPRTSSFAEG-COOH, 1 h room temperature): 28 µM; fold increase in potency/activity versus parent inhibitor (in vitro Akt inhibition): 10 fold
